Assay results from PubChem BioAssay (NCI).
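Interpolation was linear, between the two tested concentrations surrounding the appropriate level; five concentrations were tested over 48 hours in 96-well plates. Definition used: TGI = concentration required for complete inhibition of growth.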

How the values were obtained:
Experiment in all cases: growth of human tumour cells (NCI), 48 h
CAKI-1 renal = system: CAKI-1 renal
K-562 leukemia = system: K-562 leukemia
NCI-H460 lung = system: NCI-H460 lung
SF-295 CNS = system: SF-295 CNS
SF-539 CNS = system: SF-539 CNS
SK-MEL-28 melanoma = system: SK-MEL-28 melanoma
SN12C renal = system: SN12C renal
SNB-75 CNS = system: SNB-75 CNS
SR leukemia = system: SR leukemia
U251 CNS = system: U251 CNS
UACC-257 melanoma = system: UACC-257 melanoma
UACC-62 melanoma = system: UACC-62 melanoma
HOP-92 NSCLC = system: HOP-92 NSCLC
OVCAR-5 ovarian = system: OVCAR-5 ovarian
SK-MEL-2 melanoma = system: SK-MEL-2 melanoma

## O=C(O)Cc1cccc2c1OC(c1ccccc1)C(Cl)(C(=O)c1ccccc1)C2=O (stereo not drawn)
CAKI-1 renal
  TGI: 31.6 µM
K-562 leukemia
  TGI: 22.6 µM
NCI-H460 lung
  TGI: 55.8 µM
SF-295 CNS
  TGI: 66.3 µM
SF-539 CNS
  TGI: 84.3 µM
SK-MEL-28 melanoma
  TGI: 29.1 µM
SN12C renal
  TGI: 26.2 µM
SNB-75 CNS
  TGI: 40.9 µM
SR leukemia
  TGI: 60.6 µM
U251 CNS
  TGI: 30.9 µM
UACC-257 melanoma
  TGI: 32 µM

## COc1ccc(-c2cc(=O)c3ccccc3[nH]2)c(OC)c1
K-562 leukemia
  TGI: > 100 µM
NCI-H460 lung
  TGI: > 100 µM
SF-295 CNS
  TGI: > 100 µM
SF-539 CNS
  TGI: > 100 µM
SK-MEL-28 melanoma
  TGI: > 100 µM
SN12C renal
  TGI: > 100 µM
SNB-75 CNS
  TGI: > 100 µM
SR leukemia
  TGI: > 100 µM
U251 CNS
  TGI: > 100 µM
UACC-257 melanoma
  TGI: > 100 µM
UACC-62 melanoma
  TGI: > 100 µM

## COc1ccc(CCN2CCN(CCc3ccc(OC)cc3)CC2)cc1
CAKI-1 renal
  TGI: > 100 µM
HOP-92 NSCLC
  TGI: > 100 µM
K-562 leukemia
  TGI: > 100 µM
NCI-H460 lung
  TGI: > 100 µM
OVCAR-5 ovarian
  TGI: > 100 µM
SF-295 CNS
  TGI: > 100 µM
SF-539 CNS
  TGI: > 100 µM
SK-MEL-2 melanoma
  TGI: > 100 µM
SK-MEL-28 melanoma
  TGI: > 100 µM
SN12C renal
  TGI: > 100 µM
U251 CNS
  TGI: > 100 µM
UACC-257 melanoma
  TGI: > 100 µM
UACC-62 melanoma
  TGI: > 100 µM

## COC1(OC)CC(CO)(CNc2nc(N)nc(Cl)c2/C=N\O)C1
CAKI-1 renal
  TGI: > 100 µM
HOP-92 NSCLC
  TGI: 89.2 µM
K-562 leukemia
  TGI: > 100 µM
NCI-H460 lung
  TGI: > 100 µM
OVCAR-5 ovarian
  TGI: > 100 µM
SF-295 CNS
  TGI: > 100 µM
SF-539 CNS
  TGI: > 100 µM
SK-MEL-28 melanoma
  TGI: > 100 µM
SN12C renal
  TGI: > 100 µM
SNB-75 CNS
  TGI: > 100 µM
SR leukemia
  TGI: > 100 µM
U251 CNS
  TGI: > 100 µM
UACC-257 melanoma
  TGI: > 100 µM

## C=C1CCC23CC(CC[C@@H]2[C@@]12C[C@@H](c1ccoc1)OC2=O)OC3=O (stereo partly drawn)
CAKI-1 renal
  TGI: > 100 µM
HOP-92 NSCLC
  TGI: > 100 µM
K-562 leukemia
  TGI: > 100 µM
NCI-H460 lung
  TGI: > 100 µM
OVCAR-5 ovarian
  TGI: > 100 µM
SF-295 CNS
  TGI: > 100 µM
SF-539 CNS
  TGI: > 100 µM
SK-MEL-2 melanoma
  TGI: > 100 µM
SN12C renal
  TGI: > 100 µM
U251 CNS
  TGI: > 100 µM
UACC-257 melanoma
  TGI: > 100 µM
UACC-62 melanoma
  TGI: > 100 µM

## COC(=O)C(NC(=O)c1ccccc1)c1ccco1 (stereo not drawn)
HOP-92 NSCLC
  TGI: > 100 µM
K-562 leukemia
  TGI: > 100 µM
NCI-H460 lung
  TGI: > 100 µM
OVCAR-5 ovarian
  TGI: > 100 µM
SF-295 CNS
  TGI: > 100 µM
SF-539 CNS
  TGI: > 100 µM
SK-MEL-28 melanoma
  TGI: > 100 µM
SN12C renal
  TGI: > 100 µM
SNB-75 CNS
  TGI: > 100 µM
SR leukemia
  TGI: > 100 µM
U251 CNS
  TGI: > 100 µM
UACC-257 melanoma
  TGI: > 100 µM
UACC-62 melanoma
  TGI: > 100 µM

## C/C=C(/C)C(=O)O[C@H]1C[C@@H]2[C@@H](O)c3occ(C)c3C[C@]2(C)[C@@H](C)C1
CAKI-1 renal
  TGI: 33.3 µM
HOP-92 NSCLC
  TGI: 31.4 µM
K-562 leukemia
  TGI: 28.5 µM
NCI-H460 lung
  TGI: 46.8 µM
OVCAR-5 ovarian
  TGI: 34.8 µM
SF-295 CNS
  TGI: 28.9 µM
SF-539 CNS
  TGI: 31.4 µM
SK-MEL-28 melanoma
  TGI: 29.9 µM
SN12C renal
  TGI: 27.3 µM
SR leukemia
  TGI: 43.8 µM
U251 CNS
  TGI: 28.3 µM
UACC-257 melanoma
  TGI: 23.2 µM
UACC-62 melanoma
  TGI: 27.2 µM

## CCCCCCCCCCN(CCCCCCCCCC)C(=O)COc1c2cc(C(C)(C)C)cc1Cc1cc(C(C)(C)C)cc(c1OCC(=O)N(CCCCCCCCCC)CCCCCCCCCC)Cc1cc(C(C)(C)C)cc(c1OCC(=O)N(CCCCCCCCCC)CCCCCCCCCC)Cc1cc(C(C)(C)C)cc(c1OCC(=O)N(CCCCCCCCCC)CCCCCCCCCC)C2
HOP-92 NSCLC
  TGI: 11.4 µM
K-562 leukemia
  TGI: 4.87 µM
NCI-H460 lung
  TGI: 26.2 µM
OVCAR-5 ovarian
  TGI: 26.1 µM
SF-295 CNS
  TGI: 21.7 µM
SF-539 CNS
  TGI: 13.7 µM
SK-MEL-2 melanoma
  TGI: 20.4 µM
SK-MEL-28 melanoma
  TGI: 24.1 µM
SN12C renal
  TGI: 26.2 µM
SNB-75 CNS
  TGI: 32.5 µM
SR leukemia
  TGI: 6.06 µM
U251 CNS
  TGI: 23.2 µM
UACC-257 melanoma
  TGI: 29.6 µM
UACC-62 melanoma
  TGI: 25.3 µM

## CSC1=N/C(=C\c2ccccc2)C(=O)N1CN1CCCCC1
HOP-92 NSCLC
  TGI: > 100 µM
K-562 leukemia
  TGI: > 100 µM
OVCAR-5 ovarian
  TGI: > 100 µM
SF-295 CNS
  TGI: > 100 µM
SK-MEL-2 melanoma
  TGI: > 100 µM
SK-MEL-28 melanoma
  TGI: > 100 µM
SN12C renal
  TGI: > 100 µM
SNB-75 CNS
  TGI: > 100 µM
SR leukemia
  TGI: > 100 µM
U251 CNS
  TGI: > 100 µM
UACC-62 melanoma
  TGI: > 100 µM

## O=C1C(Cl)C(c2cccc(Cl)c2)N1c1ccc(-n2c(=S)[nH]c3ccccc3c2=O)cc1 (stereo not drawn)
CAKI-1 renal
  TGI: > 100 µM
HOP-92 NSCLC
  TGI: 94.5 µM
K-562 leukemia
  TGI: 45.3 µM
NCI-H460 lung
  TGI: 35.3 µM
OVCAR-5 ovarian
  TGI: 57.5 µM
SF-295 CNS
  TGI: 41.8 µM
SF-539 CNS
  TGI: 54.6 µM
SN12C renal
  TGI: 31.9 µM
SR leukemia
  TGI: 30 µM
U251 CNS
  TGI: 27.9 µM
UACC-257 melanoma
  TGI: 98.6 µM
UACC-62 melanoma
  TGI: 31.5 µM

## CCn1c2ccccc2n2c(=O)c3c(c(C#N)c12)CCCC3
CAKI-1 renal
  TGI: > 100 µM
HOP-92 NSCLC
  TGI: > 100 µM
K-562 leukemia
  TGI: > 100 µM
NCI-H460 lung
  TGI: > 100 µM
OVCAR-5 ovarian
  TGI: > 100 µM
SF-295 CNS
  TGI: > 100 µM
SF-539 CNS
  TGI: > 100 µM
SK-MEL-2 melanoma
  TGI: > 100 µM
SK-MEL-28 melanoma
  TGI: > 100 µM
SN12C renal
  TGI: > 100 µM
U251 CNS
  TGI: > 100 µM
UACC-257 melanoma
  TGI: > 100 µM
UACC-62 melanoma
  TGI: > 100 µM

## CCOC(=O)CN=C1NNS(=O)(=O)c2ccccc21
CAKI-1 renal
  TGI: > 100 µM
HOP-92 NSCLC
  TGI: > 100 µM
K-562 leukemia
  TGI: > 100 µM
NCI-H460 lung
  TGI: > 100 µM
OVCAR-5 ovarian
  TGI: > 100 µM
SF-295 CNS
  TGI: > 100 µM
SF-539 CNS
  TGI: > 100 µM
SK-MEL-28 melanoma
  TGI: > 100 µM
SN12C renal
  TGI: > 100 µM
SNB-75 CNS
  TGI: > 100 µM
SR leukemia
  TGI: > 100 µM
U251 CNS
  TGI: > 100 µM
UACC-257 melanoma
  TGI: > 100 µM
UACC-62 melanoma
  TGI: > 100 µM

## COc1cc(OC)c2c(=O)c(OC)c(-c3ccc4c(c3)OCO4)oc2c1
CAKI-1 renal
  TGI: 60.5 µM
K-562 leukemia
  TGI: > 100 µM
NCI-H460 lung
  TGI: > 100 µM
OVCAR-5 ovarian
  TGI: > 100 µM
SF-295 CNS
  TGI: 61.7 µM
SF-539 CNS
  TGI: 44.1 µM
SK-MEL-2 melanoma
  TGI: 42.5 µM
SK-MEL-28 melanoma
  TGI: > 100 µM
SN12C renal
  TGI: > 100 µM
SNB-75 CNS
  TGI: 33.5 µM
U251 CNS
  TGI: 30.3 µM
UACC-257 melanoma
  TGI: > 100 µM
UACC-62 melanoma
  TGI: 72 µM

## COc1cc(OC)cc(-c2nc3cc(F)ccc3s2)c1
CAKI-1 renal
  TGI: > 100 µM
NCI-H460 lung
  TGI: > 100 µM
OVCAR-5 ovarian
  TGI: > 100 µM
SF-295 CNS
  TGI: 23.5 µM
SF-539 CNS
  TGI: 31.3 µM
SK-MEL-2 melanoma
  TGI: 62.5 µM
SN12C renal
  TGI: > 100 µM
U251 CNS
  TGI: 33.9 µM
UACC-257 melanoma
  TGI: > 100 µM
UACC-62 melanoma
  TGI: 41.7 µM

## N#Cc1c(-c2ccccc2)cc(Nc2cccc(C(F)(F)F)c2)n2c1nc1ccccc12
CAKI-1 renal
  TGI: 13.1 µM
HOP-92 NSCLC
  TGI: 0.769 µM
NCI-H460 lung
  TGI: 17.7 µM
OVCAR-5 ovarian
  TGI: 10.7 µM
SF-295 CNS
  TGI: 12.6 µM
SF-539 CNS
  TGI: 5.06 µM
SK-MEL-28 melanoma
  TGI: 21.8 µM
SN12C renal
  TGI: 4.34 µM
SNB-75 CNS
  TGI: 9.53 µM
U251 CNS
  TGI: 10.3 µM
UACC-257 melanoma
  TGI: 9.76 µM

## COc1ccc(C2C3=C(Nc4ncnn42)c2ccccc2OC3c2ccccc2)cc1 (stereo not drawn)
CAKI-1 renal
  TGI: > 100 µM
K-562 leukemia
  TGI: > 100 µM
NCI-H460 lung
  TGI: > 100 µM
OVCAR-5 ovarian
  TGI: > 100 µM
SF-295 CNS
  TGI: > 100 µM
SF-539 CNS
  TGI: > 100 µM
SK-MEL-2 melanoma
  TGI: 53.9 µM
SN12C renal
  TGI: > 100 µM
SR leukemia
  TGI: > 100 µM
U251 CNS
  TGI: > 100 µM
UACC-257 melanoma
  TGI: > 100 µM
UACC-62 melanoma
  TGI: > 100 µM

## Cc1ccc(S(=O)(=O)OC(c2ccc(Cl)cc2Cl)C2OC(=O)c3ccccc32)cc1 (stereo not drawn)
K-562 leukemia
  TGI: > 100 µM
NCI-H460 lung
  TGI: > 100 µM
OVCAR-5 ovarian
  TGI: > 100 µM
SF-295 CNS
  TGI: > 100 µM
SF-539 CNS
  TGI: > 100 µM
SK-MEL-2 melanoma
  TGI: > 100 µM
SK-MEL-28 melanoma
  TGI: > 100 µM
SN12C renal
  TGI: > 100 µM
SR leukemia
  TGI: > 100 µM
U251 CNS
  TGI: > 100 µM
UACC-62 melanoma
  TGI: > 100 µM

## C=CCc1cc(-c2cc(CC=C)c(O)c(CNCCCl)c2)cc(CNCCCl)c1O
HOP-92 NSCLC
  TGI: 31.2 µM
K-562 leukemia
  TGI: 52.1 µM
NCI-H460 lung
  TGI: 37 µM
SF-295 CNS
  TGI: 33.8 µM
SK-MEL-2 melanoma
  TGI: 35.2 µM
SK-MEL-28 melanoma
  TGI: 32.9 µM
SN12C renal
  TGI: 44.6 µM
SNB-75 CNS
  TGI: > 100 µM
U251 CNS
  TGI: 30.7 µM
UACC-257 melanoma
  TGI: 32.4 µM
UACC-62 melanoma
  TGI: 28.3 µM
